Measured values published in PubChem BioAssay AID2060615 (Molecular Pharmacology Branch, DTP, NCI, 2025).

Tested on: 496974-208-R-J2-PDC complex spheroids, growth % test/control
Experiment: Anticancer human tumor 496974-208-R-J2-PDC patient-derived pancreatic carcinoma cell line growth inhibition [CLK]
Details: for IC50: curve of first compound; for viability, T/C: stronger effect = lower value
Outline: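 Patient-derived tumor cells grown as complex spheroids with HUVEC endothelial cells and mesenchymal stem cells, treated with drug combinations. Concentrations descend in half-log steps from near clinical Cmax, or from 10 microM if Cmax unknown.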
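Note: spheroids exposed to the drugs for 7 days before readout.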
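Throughout, for viability, T/C: 100% = DMSO vehicle control wells.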

**Q.** `Cn1ncnc1[C@H]1c2n[nH]c(=O)c3cc(F)cc(c23)N[C@@H]1c1ccc(F)cc1` + CN1CCN(c2cc(C(=O)Nc3cc4cc(-c5cnn(C)c5)ccc4cn3)ccn2)CC1 was tested. Which IC50 (second compound 0.0316 µM) did it give?
**A.** > 100 nM

**Q.** What about the IC50 (second compound 0.1 µM) of the same compound?
**A.** > 100 nM

**Q.** And the IC50 (second compound 0.316 µM)?
**A.** < 0.316 nM

**Q.** What about the IC50 (second compound 1 µM) of the same compound?
**A.** < 0.316 nM

**Q.** What about the IC50 (second compound 3.16 µM) of the same compound?
**A.** < 0.316 nM

**Q.** What about the IC50 (second compound 10 µM) of the same compound?
**A.** < 0.316 nM

**Q.** What about the viability, T/C (second compound 0.0316 µM, first compound 0.000316 µM) of the same compound?
**A.** 112%

**Q.** What about the viability, T/C (second compound 0.0316 µM, first compound 0.001 µM) of the same compound?
**A.** 106%

**Q.** What about the viability, T/C (second compound 0.0316 µM, first compound 0.00316 µM) of the same compound?
**A.** 99.2%

**Q.** And the viability, T/C (second compound 0.0316 µM, first compound 0.01 µM)?
**A.** 94.9%

**Q.** What about the viability, T/C (second compound 0.0316 µM, first compound 0.0316 µM) of the same compound?
**A.** 107%

**Q.** What about the viability, T/C (second compound 0.0316 µM, first compound 0.1 µM) of the same compound?
**A.** 96.5%

**Q.** And the viability, T/C (second compound 0.1 µM, first compound 0.000316 µM)?
**A.** 84.8%

**Q.** What about the viability, T/C (second compound 0.1 µM, first compound 0.001 µM) of the same compound?
**A.** 88.5%

**Q.** And the viability, T/C (second compound 0.1 µM, first compound 0.00316 µM)?
**A.** 85.1%

**Q.** And the viability, T/C (second compound 0.1 µM, first compound 0.01 µM)?
**A.** 79.6%

**Q.** What about the viability, T/C (second compound 0.1 µM, first compound 0.0316 µM) of the same compound?
**A.** 84.1%

**Q.** What about the viability, T/C (second compound 0.1 µM, first compound 0.1 µM) of the same compound?
**A.** 63.7%

**Q.** And the viability, T/C (second compound 0.316 µM, first compound 0.000316 µM)?
**A.** 5.57%

**Q.** And the viability, T/C (second compound 0.316 µM, first compound 0.001 µM)?
**A.** 7.18%

**Q.** What about the viability, T/C (second compound 0.316 µM, first compound 0.00316 µM) of the same compound?
**A.** 5.28%

**Q.** What about the viability, T/C (second compound 0.316 µM, first compound 0.01 µM) of the same compound?
**A.** 6.84%

**Q.** What about the viability, T/C (second compound 0.316 µM, first compound 0.0316 µM) of the same compound?
**A.** 6.51%

**Q.** What about the viability, T/C (second compound 0.316 µM, first compound 0.1 µM) of the same compound?
**A.** 9.2%

**Q.** And the viability, T/C (second compound 1 µM, first compound 0.000316 µM)?
**A.** 0.52%

**Q.** What about the viability, T/C (second compound 1 µM, first compound 0.001 µM) of the same compound?
**A.** 0.5%

**Q.** What about the viability, T/C (second compound 1 µM, first compound 0.00316 µM) of the same compound?
**A.** 0.55%

**Q.** And the viability, T/C (second compound 1 µM, first compound 0.01 µM)?
**A.** 0.33%

**Q.** What about the viability, T/C (second compound 1 µM, first compound 0.0316 µM) of the same compound?
**A.** 0.32%

**Q.** And the viability, T/C (second compound 1 µM, first compound 0.1 µM)?
**A.** 2.32%

**Q.** And the viability, T/C (second compound 3.16 µM, first compound 0.000316 µM)?
**A.** 0.36%

**Q.** What about the viability, T/C (second compound 3.16 µM, first compound 0.001 µM) of the same compound?
**A.** 0.46%

**Q.** And the viability, T/C (second compound 3.16 µM, first compound 0.00316 µM)?
**A.** 1.75%

**Q.** And the viability, T/C (second compound 3.16 µM, first compound 0.01 µM)?
**A.** 0.59%

**Q.** What about the viability, T/C (second compound 3.16 µM, first compound 0.0316 µM) of the same compound?
**A.** 0.66%

**Q.** What about the viability, T/C (second compound 3.16 µM, first compound 0.1 µM) of the same compound?
**A.** 0.41%

**Q.** And the viability, T/C (second compound 10 µM, first compound 0.000316 µM)?
**A.** 0.27%

**Q.** And the viability, T/C (second compound 10 µM, first compound 0.001 µM)?
**A.** 1.75%

**Q.** What about the viability, T/C (second compound 10 µM, first compound 0.00316 µM) of the same compound?
**A.** 0.83%

**Q.** What about the viability, T/C (second compound 10 µM, first compound 0.01 µM) of the same compound?
**A.** 0.22%

**Q.** What about the viability, T/C (second compound 10 µM, first compound 0.0316 µM) of the same compound?
**A.** 2.44%

**Q.** And the viability, T/C (second compound 10 µM, first compound 0.1 µM)?
**A.** 2.04%
